Data set [1] relates to HeLa cells. The following applies: cited from earlier work.
Data set [2] deals with HeLa cells. The data set is described as follows: Cell antiproliferative activity assay (CCK8). The data set is classed as cell-based, human. The following applies: Homo sapiens; for IC50: HeLa; for inhibition at 0.25 µM: 250 nM; for inhibition at 0.5 µM: 500 nM; for inhibition at 1 µM: 1000 nM; for inhibition at 2 µM: 2000 nM; for inhibition at 4 µM: 4000 nM; for inhibition at 8 µM: 8000 nM; for inhibition at 16 µM: 16000 nM. As to the method:
Cell antiproliferative activity was evaluated by the Cell Counting Kit-8 (CCK8, DOJINDO, Japan) assay. The cells were seeded at a density of 2,000 cells per well into 96-well microplate in 100 μl of growth medium. Cells were incubated at 37°C and 5% CO2 overnight. The next day, 100 μl per well of diluted inhibitor in growth medium was added with the final concentration from 0.1 nM to 100 μM. The cells were treated with DMSO as control. A series of dilutions are made in 0.1% DMSO in assay medium so that the final concentration of DMSO is 0.1% in all of treatments. Cells were incubated at 37°C and 5% CO2 for 48 h. Then, 10 μl of CCK8 was added to each well. The plates were incubated at 37°C for 2 h; after that, the plates were recorded by measuring absorbance at 450 nm with the reference wavelength of 630 nm using an EnVision Multilabel Reader (PerkinElmer). The IC50 values were calculated using GraphPad Prism 6.0 software and determined by the concentration causing a half-maximal percent activity. All assays were conducted with three parallel samples and three repetitions.

Data set [3] concerns HeLa cells. In words: Flow cytometry detection for cell apoptosis (Annexin V/PI). The data set is classed as cell-based, human. The following applies: single samples; for Q3: FITC-A+ , PE-A- Freq. of Parent / Q2: FITC-A+ , PE-A+ Freq. of Parent: 72 h, Annexin V/PI. As for the experimental part: Cell-apoptosis analysis was carried out by flow cytometry using the Annexin V/PI apoptosis kit (Solarbio, China) according to the manufacturer’s manual. Briefly, HeLa (5 × 10^4/well) cells were seeded in 12-well plates for 24 h and then treated with 0.1% DMSO (as control) or various concentrations of compounds 4d, 4k, and 4l for 72 h, respectively. Cells were harvested, washed with PBS, and then incubated with 100 μl of 1 × Annexin V binding buffer containing 1 μl FITC Annexin V for 10 min at RT in the dark. Cells were incubated for another 5 min at room temperature (RT) in the dark after 1 μl PI was added. PBS (200 µl) was added to each tube for flow cytometry analysis (BriCyte E6). The percentages of apoptotic cells were analyzed using FlowJo soft.
For orientation: In flow cytometry, cells or beads pass a laser one at a time.

[4] abbreviates: chromenocarbazole tethered 1,2,3-triazoles, ref Chavan et al., 2019, read-out: IC50 antiproliferative activity in HeLa cells.
The mark [5] stands for this setting: amidino 2-substituted benzimidazoles linked to 1,2,3-triazoles, ref Raic-Malic et al., read-out: IC50 antiproliferation activities against HeLa cells.
Setting [6] is: 48 h, HeLa cells, CCK8, 48 h, mean ± SD, n = 3, read-out: IC50 (μM) HeLa.
Setting [7] is: HELA 2000cells/well, supplement DataSheet2, Repeat1, read-out: IC50 Repeat1.
The mark [8] stands for this setting: HELA 2000cells/well, supplement DataSheet2, Repeat 2, read-out: IC50 Repeat 2.
The mark [9] stands for this setting: HELA 2000cells/well, supplement DataSheet2, mean of two repeats ± SD, read-out: IC50 mean±SD.
Where [10] appears, read: HELA 2000cells/well, Repeat1, read-out: Inhibition (%) Repeat1.
[11] abbreviates: HELA 2000cells/well, Repeat2, read-out: Inhibition (%) Repeat2.

This is an account of results in paper PMC8802806, “Synthesis and Antitumor Activity of Erlotinib Derivatives Linked With 1,2,3-Triazole” (Frontiers in Pharmacology, 2022).

As usually defined, the inhibition is the percentage by which the read-out fell short of the control. The melting point is the temperature of the solid-liquid transition.

SMILES strings stand for the structures. Several values for one entry are separate records, joined by “and”; a condition that tells them apart may be missing. Identical values can stand only once. Like-named read-outs stand apart in the source and are kept apart here.

For `Cc1ccc(Cn2cc(CN3C(=O)C4(C(C#N)=C(N)Oc5c4ccc4[nH]c6ccccc6c54)c4ccccc43)nn2)cc1` (stereo not drawn) [6b], the IC50 in the data set with HeLa cells [1] (setting [4]) is 4.05 µM.
`c1ccc(Cn2cc(COc3ccc(-c4nc5cc(C6=NCCN6)ccc5[nH]4)cc3)nn2)cc1` [11f]: the IC50 in the data set with HeLa cells [1] (setting [5]) is 6.63 µM.
`COCCOc1cc2ncnc(Nc3cccc(-c4cn(-c5cccc([N+](=O)[O-])c5)nn4)c3)c2cc1OCCOC` [Compound 4m, [6,7-Bis-(2-methoxy-ethoxy)-quinazolin-4-yl]-{3-[1-(3-nitro-phenyl)-1H-[1,2,3]triazol-4-yl]-phenyl}-amine] registered a melting point of 98 to 101 °C. In addition, the IC50 in the data set with HeLa cells [2] (setting [6]) came to 3.79 ± 0.1 µM. In addition, in the data set on HeLa cells [2] (setting [7]), the IC50 was 3.89 µM. Besides, the IC50 in the data set with HeLa cells [2] (setting [8]) amounted to 3.69 µM. The IC50 with HeLa cells [2] (setting [9]) worked out at 3.79 ± 0.103 µM. Besides, in the data set with HeLa cells [2] (setting [10]), the inhibition at 0.25 µM was 0%, the inhibition at 0.5 µM turned out to be 3.48%, the inhibition at 1 µM came to 8.91% and the inhibition at 2 µM was determined as 42.2%. In the data set on HeLa cells [2] (setting [10]), the inhibition at 4 µM was 54.2%, the inhibition at 8 µM was found to be 67.5% and the inhibition at 16 µM was found to be 77.1%. Besides, in the data set with HeLa cells [2] (setting [11]), the inhibition at 0.25 µM was 7.86%, the inhibition at 0.5 µM came to 5.51%, the inhibition at 1 µM worked out at 15.1% and the inhibition at 2 µM worked out at 42.1%. In the data set with HeLa cells [2] (setting [11]), the inhibition at 4 µM turned out to be 56.2%, the inhibition at 8 µM worked out at 66.5% and the inhibition at 16 µM came out at 77.2%.
The compound `CCOc1cccc(-n2cc(-c3cccc(Nc4ncnc5cc(OCCOC)c(OCCOC)cc45)c3)nn2)c1` [Compound 4n, [6,7-Bis-(2-methoxy-ethoxy)-quinazolin-4-yl]-{3-[1-(3-ethoxy-phenyl)-1H-[1,2,3]triazol-4-yl]-phenyl}-amine] came in with a melting point of 110 to 114 °C. Further, in the data set with HeLa cells [2] (setting [6]), the IC50 came to 8.21 ± 1.05 µM. In addition, the IC50 in the data set with HeLa cells [2] (setting [7]) is 7.21 µM. In the data set with HeLa cells [2] (setting [8]), the IC50 was found to be 9.31 µM. In addition, the IC50 in the data set on HeLa cells [2] (setting [9]) was 8.21 ± 1.05 µM. Besides, in the data set with HeLa cells [2] (setting [10]), the inhibition at 0.25 µM turned out to be 0%, the inhibition at 0.5 µM came to 4.33%, the inhibition at 1 µM amounted to 7.26% and the inhibition at 2 µM was 12.8%. Also, in the data set on HeLa cells [2] (setting [10]), the inhibition at 4 µM stood at 31.2%, the inhibition at 8 µM worked out at 51.9% and the inhibition at 16 µM was determined as 77.1%. In the data set with HeLa cells [2] (setting [11]), the inhibition at 0.25 µM was 2.69%, the inhibition at 0.5 µM is 4.33%, the inhibition at 1 µM amounted to 6.45% and the inhibition at 2 µM worked out at 10.8%. Further, in the data set with HeLa cells [2] (setting [11]), the inhibition at 4 µM is 18.5%, the inhibition at 8 µM is 45.5% and the inhibition at 16 µM was 69.6%. Also, in the data set on HeLa cells [3] (3 μM), the “Q3: FITC-A+ , PE-A- Freq. of Parent” value was 0.75% and 1.15% and 1.24%. Further, in the data set on HeLa cells [3] (6 μM), the “Q2: FITC-A+ , PE-A+ Freq. of Parent” value was determined as 21.9%; the “Q3: FITC-A+ , PE-A- Freq. of Parent” value was 5.30% and 1.36% and 0.76%; the “Q2+Q3 (as fraction)” value is 0.272 and 0.3116 and 0.2626. Moreover, in the data set with HeLa cells [3] (12 μM), the “Q2: FITC-A+ , PE-A+ Freq. of Parent” value was determined as 61.9%; the “Q3: FITC-A+ , PE-A- Freq. of Parent” value was 2.53% and 1.19% and 1.05%; the “Q2+Q3 (as fraction)” value was 0.6443 and 0.5879 and 0.6565.
On to `N#CC1=C(N)Oc2c(ccc3[nH]c4ccccc4c23)C12C(=O)N(Cc1cn(Cc3ccc(Cl)cc3)nn1)c1ccc(Br)cc12` (stereo not drawn) [6s], for which the IC50 in the data set on HeLa cells [1] (setting [4]) was 3.83 µM.
As for `CC(C)NC(=N)c1ccc2[nH]c(-c3ccc(OCc4cn(Cc5ccc(Cl)cc5)nn4)cc3)nc2c1` [10c], in the data set with HeLa cells [1] (setting [5]), the IC50 is 17.5 µM.
On to `COCCOc1cc2ncnc(Nc3cccc(-c4cn(-c5ccccc5F)nn4)c3)c2cc1OCCOC` [Compound 4f, [6,7-Bis-(2-methoxy-ethoxy)-quinazolin-4-yl]-{3-[1-(2-fluoro-phenyl)-1H-[1,2,3]triazol-4-yl]-phenyl}-amine], for which the melting point lay within 83 to 86 °C. The IC50 in the data set on HeLa cells [2] (setting [6]) worked out at 30.7 ± 1.83 µM. Moreover, the IC50 in the data set with HeLa cells [2] (setting [7]) worked out at 32.4 µM. Further, the IC50 in the data set on HeLa cells [2] (setting [8]) is 28.7 µM. The IC50 in the data set on HeLa cells [2] (setting [9]) amounted to 30.7 ± 1.83 µM. Besides, in the data set with HeLa cells [2] (setting [10]), the inhibition at 0.25 µM amounted to 2.17%, the inhibition at 0.5 µM was 2.51%, the inhibition at 1 µM was determined as 3.51% and the inhibition at 2 µM was found to be 4.77%. Besides, in the data set on HeLa cells [2] (setting [10]), the inhibition at 4 µM is 8.86%, the inhibition at 8 µM worked out at 29.8% and the inhibition at 16 µM was found to be 31.1%. Further, in the data set on HeLa cells [2] (setting [11]), the inhibition at 0.25 µM is 0%, the inhibition at 0.5 µM was determined as 0.418%, the inhibition at 1 µM turned out to be 0.502% and the inhibition at 2 µM is 2.17%. In addition, in the data set with HeLa cells [2] (setting [11]), the inhibition at 4 µM turned out to be 3.18%, the inhibition at 8 µM turned out to be 23.1% and the inhibition at 16 µM was determined as 30.4%.
`COCCOc1cc2ncnc(Nc3cccc(-c4cn(-c5ccc(Br)cc5)nn4)c3)c2cc1OCCOC` [Compound 4j, [6,7-Bis-(2-methoxy-ethoxy)-quinazolin-4-yl]-{3-[1-(4-bromo-phenyl)-1H-[1,2,3]triazol-4-yl]-phenyl}-amine]: the melting point lay within 105 to 108 °C. For the same compound, the IC50 with HeLa cells [2] (setting [6]) came to 12.2 ± 1 µM. In addition, in the data set on HeLa cells [2] (setting [7]), the IC50 turned out to be 11.3 µM. In addition, the IC50 in the data set on HeLa cells [2] (setting [8]) came to 13.3 µM. Further, the IC50 in the data set on HeLa cells [2] (setting [9]) is 12.2 ± 1.01 µM. Moreover, in the data set on HeLa cells [2] (setting [10]), the inhibition at 0.25 µM was 0%, the inhibition at 0.5 µM is 0.0873%, the inhibition at 1 µM came to 0.96% and the inhibition at 2 µM amounted to 4.01%. Moreover, in the data set with HeLa cells [2] (setting [10]), the inhibition at 4 µM was determined as 8.03%, the inhibition at 8 µM amounted to 26.2% and the inhibition at 16 µM was 73.6%. Also, in the data set on HeLa cells [2] (setting [11]), the inhibition at 0.25 µM was determined as 2.88%, the inhibition at 0.5 µM amounted to 2.97%, the inhibition at 1 µM stood at 4.36% and the inhibition at 2 µM is 4.89%. Moreover, in the data set on HeLa cells [2] (setting [11]), the inhibition at 4 µM came to 8.64%, the inhibition at 8 µM was determined as 17.7% and the inhibition at 16 µM came out at 63.3%.
On to `Cc1ccc(Cn2cc(CN3C(=O)C4(C(C#N)=C(N)Oc5c4ccc4[nH]c6ccccc6c54)c4cc(F)ccc43)nn2)cc1` (stereo not drawn) [6u], for which, in the data set with HeLa cells [1] (setting [4]), the IC50 is 3.35 µM.
Consider `COc1ccc2c(-n3cc(-c4cc(OC)c(OC)c(OC)c4)nn3)c(C(=O)Nc3ccccc3)oc2c1` [17 g, 6-methoxy-N-phenyl-3-[4-(3,4,5-trimethoxyphenyl)-1H-1,2,3-triazol-1-yl] benzofuran-2 carboxamide], for which the IC50 in the data set on HeLa cells [1] (ref Qi et al., 2020, read-out: IC50 antiproliferative activities against HeLa cells) was 0.73 ± 0.67 µM.
In the case of `N#CC1=C(N)Oc2c(ccc3[nH]c4ccccc4c23)C12C(=O)N(Cc1cn(Cc3ccc(C(F)(F)F)cc3)nn1)c1ccccc12` (stereo not drawn) [6g], the IC50 in the data set with HeLa cells [1] (setting [4]) is 3.54 µM.
